Reference: patent US20250241971A1 (priority 2022, published 2025)

Tests used:
[1] = test system: pig jejunum explants
[2] = test system: broiler chickens; conditions: in vivo
[3] = test system: broiler chickens; conditions: in vivo; remark: listed apart in the source
[4] = test system: il8 and ifnγ genes; conditions: in vivo
[5] = test system: Poultry; conditions: in vivo; cited from earlier work
[6] = test system: Ruminants; conditions: in feed; cited from earlier work

## CC1=C[C@H]2O[C@@H]3[C@H](O)C[C@](C)([C@@]2(CO)[C@H](O)C1=O)[C@]31CO1 [DON, Deoxynivalenol]
[1]
  number of lesions on the tissue: increases the number of lesions on the tissue
[1]; pig
  decrease in villus length: approximately 35%
[2]
  lesions in the liver: induces a strong increase in lesions in the liver
  macroscopic appearance of the liver: appears paler, slightly yellower; a hemorrhagic lesion is clearly visible
[3]
  size (height) of intestinal villi of the jejunum: induces a reduction in the size of the intestinal villi of the jejunum
[4]
  il8 mRNA expression in jejunum: strong increase
  interferon gamma (ifnγ) mRNA expression in jejunum: strong increase
[5]
  concentration from which first zootechnical effects are observed: ≥ 5 mg of DON per kilogram of feed
[6]
  feed concentration up to which little sensitivity appears: up to 12 mg/kg of feed
